This is an account of results in paper PMC10696396, “HilE represses the activity of the Salmonella virulence regulator HilD via a mechanism distinct from that of intestinal long-chain fatty acids” (The Journal of Biological Chemistry, 2023).

Test [1] concerns the target T1, HilD (Salmonella enterica, UniProt P0CL08). Nature of the test: biochemical. Further details: EYFP-HilD (full-length HilD with N-terminal EYFP tag); microscale thermophoresis, fatty acid titrated against EYFP-HilD in presence of Pluronic F-127, MST on-time 1.5 s. To be noted: in presence of Pluronic F-127; read-out: Kd ± SD.
Test [2] has as its target T1, HilD. Put plainly: MST. The format is binding. Also noted: EYFP-HilD (full-length HilD with N-terminal EYFP tag). To be noted: read-out: Kd ± SD.
Test [3] deals with T1, HilD. Nature of the test: MST; supported by nanoDSF melting temperature increase. Further details: EYFP-HilD (full-length HilD with N-terminal EYFP tag). To be noted: read-out: Kd ± SD. The test is classed as binding. (In general: In DSF a fluorescence change marks the thermal transition of the protein.)
Test [4] addresses T1, HilD. Put plainly: EMSA with hilA promoter DNA. Also noted: HilD. The format is biochemical. (In general: Mobility shift assays separate free from complexed probe on a gel.)
Test [5] has as its target T2, HilD (Salmonella enterica, UniProt P0CL08, E102A).
T2 construct: HilD point mutant
T2 sequence (P0CL08 1-309 E102A): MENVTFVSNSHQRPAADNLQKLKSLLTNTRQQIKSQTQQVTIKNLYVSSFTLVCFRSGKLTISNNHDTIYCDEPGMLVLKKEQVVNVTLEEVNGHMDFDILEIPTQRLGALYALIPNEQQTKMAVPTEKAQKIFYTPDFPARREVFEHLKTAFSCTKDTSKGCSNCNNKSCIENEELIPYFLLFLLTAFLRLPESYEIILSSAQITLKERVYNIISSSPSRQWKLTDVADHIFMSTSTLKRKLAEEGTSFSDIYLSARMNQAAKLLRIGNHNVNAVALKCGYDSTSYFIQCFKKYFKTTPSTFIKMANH
Nature of the test: MST. The format is binding.

In test [6] the target is T3, HilD (Salmonella enterica, UniProt P0CL08, R267A).
T3 construct: HilD point mutant
T3 sequence (P0CL08 1-309 R267A): T2 sequence (P0CL08 1-309 E102A)
Put plainly: MST. The format is binding.

In test [7] the target is T4, HilD (Salmonella enterica, UniProt P0CL08, K264A).
T4 construct: HilD point mutant
T4 sequence (P0CL08 1-309 K264A): T2 sequence (P0CL08 1-309 E102A)
Nature of the test: MST. The test is classed as binding.

Test [8] has as its target T5, HilD (Salmonella enterica, UniProt P0CL08, E102A/K264A/R267A).
T5 construct: HilD triple alanine mutant
T5 sequence (P0CL08 1-309 E102A/K264A/R267A): T2 sequence (P0CL08 1-309 E102A)
Nature of the test: MST. The test is classed as binding.

The target of test [9] is T1, HilD. Nature of the test: MST; supported by HDX-MS, nanoDSF and BS3 cross-linking. To be noted: read-out: Kd ± SD. The format is binding. Further details: EYFP-HilD (full-length HilD with N-terminal EYFP tag).

By Kd is commonly meant the constant that tells how readily two partners part at equilibrium. With `CCCCCCCC/C=C\CCCCCCCCCCCC(=O)O` [erucic acid], the Kd is 14.7 µM on HilD [1] and 12.8 ± 3.33 µM on HilD [2].

Consider `CCCCCCCC/C=C\CCCCCCCC(=O)OC` [Methyl Oleate], for which, on HilD [1], the Kd came to 739 µM.

As for `CCCCCC/C=C\CCCCCCCC(=O)O` [palmitoleic acid], the Kd at HilD [3] came out at 27.6 ± 8.7 µM.

Regarding `CCCCCCCC/C=C/CCCCCCCC(=O)O` [elaidic acid], on HilD [4], the “EMSA with hilA promoter DNA” value is listed as “Elaidic acid appears to bind to HilD with similar affinity to oleic acid”.

Take `CCCCCCCC/C=C\CCCCCCCC(=O)O` [oleic acid]: the Kd was 39 ± 8.26 µM at HilD [5]; 39.4 ± 7.98 µM at HilD [6]; 27.1 ± 7.08 µM at HilD [7]; 39.7 ± 7.9 µM on HilD [8]; 15 ± 3.21 µM on HilD [9].

With `CCCC/C=C\CCCCCCCC(=O)O` [Myristoleic Acid], the Kd on HilD [1] worked out at 567 µM.
